According to ChEMBL document CHEMBL1154407, “Tick acquisition of Ehrlichia canis from dogs treated with doxycycline hyclate” (Antimicrob Agents Chemother, 2007):
The source made the active and inactive calls.

Columns and labels:
Type in all cases: functional, organism-based
Set-up in all cases: dose 10 mg/kg
Ehrlichia canis [1] = assay: Antimicrobial activity against Ehrlichia canis infected in Beagle dog AUF at 10 mg/kg, po once daily for 14 days measured 104 days post-tick attachment after drug administration by PCR
Ehrlichia canis [2] = assay: Antimicrobial activity against Ehrlichia canis infected in Beagle dog AIP at 10 mg/kg, po once daily for 14 days measured 83 days post-tick attachment after drug administration by PCR
Ehrlichia canis [3] = assay: Antimicrobial activity against Ehrlichia canis infected in Beagle dog AHK at 10 mg/kg, po once daily for 14 days measured 55 days post-tick attachment after drug administration by PCR
Ehrlichia canis [4] = assay: Antimicrobial activity against Ehrlichia canis infected in Beagle dog AIP with brown dog tick assessed as infected ticks at 10 mg/kg, po once daily for 14 days measured 7 days post-tick attachment after drug administration by PCR
Ehrlichia canis [5] = assay: Antimicrobial activity against Ehrlichia canis infected in Beagle dog AHG at 10 mg/kg, po once daily for 14 days measured 76 days post-tick attachment after drug administration by PCR

Measured: Activity

C[C@H]1c2cccc(O)c2C(=O)C2=C(O)[C@]3(O)C(=O)C(C(N)=O)=C(O)[C@@H](N(C)C)[C@@H]3[C@@H](O)[C@@H]21
inactive: all assays above
